# Results taken from publication PMC3613864 (Cell, 2012).
# “Also recorded” adds a separate entry of the source. Like-named read-outs stand apart in the source and are kept apart here.
# Legend:
# [1] = test system: 6133/MPL cells; test: Transplantation of drug-pre-treated 6133/MPL cells into mice; assay type: in vivo, C57Bl/6 mice
# [2] = test system: phospho-histone H3; test: Phosphorylation of histone H3 in CMK cells; assay type: cell-based, human
# [3] = test system: 6133/MPL cells; test: 6133/MPL cells in vitro; assay type: cell-based; details: 6133/MPL murine cell line
# [4] = test system: primary human megakaryocytes; test: Primary human megakaryocytes expanded from CD34+ cells; assay type: cell-based
# [5] = test system: CMK cells; test: Polyploidization, proliferation, apoptosis and CD41/CD42 expression in CMK cells; assay type: cell-based, human
# [6] = target: T1, AURKA (Homo sapiens, UniProt O14965); test: Phosphorylation of Aurora kinases in CMK cells by Western blot; assay type: cell-based
# T1 sequence (O14965 1-403): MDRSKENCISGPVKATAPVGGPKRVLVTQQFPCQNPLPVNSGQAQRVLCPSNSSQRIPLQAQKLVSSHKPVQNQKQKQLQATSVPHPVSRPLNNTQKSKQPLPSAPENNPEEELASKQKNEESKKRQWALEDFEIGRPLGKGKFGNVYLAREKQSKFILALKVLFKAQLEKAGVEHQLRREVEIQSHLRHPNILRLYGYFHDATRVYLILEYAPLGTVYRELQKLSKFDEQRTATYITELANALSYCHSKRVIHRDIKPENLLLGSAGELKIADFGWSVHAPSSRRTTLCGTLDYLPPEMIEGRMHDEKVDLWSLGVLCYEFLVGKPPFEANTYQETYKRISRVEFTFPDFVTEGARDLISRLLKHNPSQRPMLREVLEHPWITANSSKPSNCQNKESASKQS
# [7] = target: AURKB (Homo sapiens, UniProt Q96GD4); test: as above; assay type: cell-based
# Sequence of AURKB (Q96GD4 whole entry): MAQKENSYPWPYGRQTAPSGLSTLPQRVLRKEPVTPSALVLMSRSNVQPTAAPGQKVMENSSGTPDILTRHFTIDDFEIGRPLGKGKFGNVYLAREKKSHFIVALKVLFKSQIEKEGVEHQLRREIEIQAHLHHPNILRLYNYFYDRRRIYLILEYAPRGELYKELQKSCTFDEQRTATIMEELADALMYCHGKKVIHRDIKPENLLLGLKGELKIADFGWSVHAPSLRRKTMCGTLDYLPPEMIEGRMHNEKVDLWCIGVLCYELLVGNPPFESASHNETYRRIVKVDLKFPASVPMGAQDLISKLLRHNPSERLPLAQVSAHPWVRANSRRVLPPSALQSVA
# [8] = test system: tg-ERG cells; test: AMKL cell line derived from ERG transgenic mice; assay type: cell-based; details: tg-ERG cells (data not shown)
# [9] = test system: CMK cells; assay type: cell-based, human; details: three-day incubation
# [10] = test system: human CD41+ non-DS-AMKL blasts; test: Human non-DS-AMKL blasts cultured ex vivo; assay type: cell-based; details: 0.1 µM, 6 days
# [11] = in vivo; details: C57Bl/6, mouse, plasma, po, 15 mg/kg
# [12] = Oral pharmacokinetics, plasma concentration after a single dose; details: single oral administration of 15 mg/kg
# [13] = test system: 6133/MPL cells; test: Drug treatment of mice transplanted with 6133/MPL cells; assay type: in vivo, C57Bl/6 mice
# [14] = test system: murine bone marrow-derived megakaryocytes; test: Primary murine hematopoietic progenitor cells cultured with THPO; assay type: cell-based; details: primary mouse bone marrow cells cultured ex vivo
# [15] = test system: AURKA relative to AURKB; details: ref Gorgun et al., 2010; Manfredi et al., 2011; cited from earlier work
# [16] = test system: 402 purified kinases; test: Ambit KinomeScan kinase binding profile; details: of 402 kinases; 5 µM diMF
# [17] = test system: AMKL-derived cells; test: Phenotype in AMKL-derived cells; assay type: cell-based; details: data not shown
# [18] = test system: leukemia blasts that harbor activated oncogenic forms of KIT, FLT3, and BCR-ABL; details: ref Mali et al., 2011; cited from earlier work
# [19] = CMK cells, 72 hr, Fig 2: K252a, latrunculin B, diMF 5 µM, SU6656 4 µM
# [20] = 1 µM, CMK cells (data not shown)
# [21] = CMK cells, 0.1 µM paclitaxel 18 hr then compound 2 hr
compound,measurement,setting,value
CCN(CCO)CCCOc1ccc2c(Nc3cc(CC(=O)Nc4cccc(F)c4)[nH]n3)ncnc2c1 [AZD1152-HQPA],leukemia development after transplantation of pre-treated cells,[1]; 6133/MPL cells pre-treated 24 hr with 3 µM,failed to significantly interfere with leukemia development
same,phospho-histone H3 level,[2],reduction in phospho-histone H3
same,"polyploidization, CD41 and CD42 expression, and apoptosis",[3],"increased polyploidization, CD41 and CD42 expression, and apoptosis"
same,polyploidization of primary human megakaryocytes,[4],induced robust and selective polyploidization
same,apoptosis,[5]; [19],induced
same,polyploidization,[5]; [19],induced robust polyploidization
same,proliferation,[5]; [19],restricted proliferation
same,phospho-AURKA,[6]; [20],complete loss of phospho-AURKA and AURKB
same,AURKA phosphorylation / autophosphorylation,[6]; [21],reduced phosphorylation of both Aurora A and B kinases
same,phospho-AURKB,[7]; [20],complete loss of phospho-AURKA and AURKB
same,AURKB phosphorylation,[7]; [21],reduced phosphorylation of both Aurora A and B kinases
same,proliferation and megakaryocyte lineage-specific surface marker expression,[8],induced proliferation arrest and megakaryocyte lineage-specific surface marker expression
COC(=O)[C@@]1(O)C[C@H]2O[C@]1(C)n1c3ccccc3c3c4c(c5c6ccccc6n2c5c31)C(=O)NC4 [K252a],apoptosis,[5]; [19],inducing
same,polyploidization,[5]; [19],inducing
same,proliferation,[5]; [19],inhibited
same,screening positive: increased fraction of cells with DNA content beyond a cutoff (between 4N and 8N) compared to DMSO,[9],identified
"COc1cc(Nc2ncc3c(n2)-c2ccc(Cl)cc2C(c2c(F)cccc2OC)=NC3)ccc1C(=O)O [MLN8237, Alisertib]",animals surviving up to 120 days after transplantation of pre-treated cells,[1]; 6133/MPL cells pre-treated 24 hr with 1 µM,80%
same,phospho-histone H3 level,[2],accumulation of phospho-histone H3
same,"polyploidization, CD41 and CD42 expression, and apoptosis",[3],"increased polyploidization, CD41 and CD42 expression, and apoptosis"
same,polyploidization of primary human megakaryocytes,[4],induced robust and selective polyploidization
same,apoptosis,[5]; [19],induced
same,polyploidization,[5]; [19],induced robust polyploidization
same,proliferation,[5]; [19],restricted proliferation
same,polyploidization and proliferation of human non-DS AMKL cells,[10],induced both polyploidization and proliferative arrest
same,Cmax,[11],34.8 µM
same,Tmax,[11],0.5 h
same,half-life,[11],3.1 h
same,AURKA phosphorylation / autophosphorylation,[6],reduced AURKA autophosphorylation
same,autophosphorylation of AURKA,[6],inhibited autophosphorylation of AURKA
same,bioavailability,[12],excellent bioavailability
same,mean plasma concentrations for at least 12 hr,[12],above 0.5 µM
same,"infiltration of leukemic cells (liver, lung)",[13]; 15 mg/kg,striking reduction of infiltration of leukemic cells
same,"peripheral white blood cell count, spleen and liver weights",[13]; 15 mg/kg for 2 weeks vs vehicle,significantly reduced peripheral white blood cell count and spleen and liver weights
same,polyploidization and expression of CD41 and CD42,[14],induced polyploidization and expression of CD41 and CD42
same,autophosphorylation of AURKB,"[7]; 0.1 µM, CMK cells",but not AURKB
same,proliferation and megakaryocyte lineage-specific surface marker expression,[8],induced proliferation arrest and megakaryocyte lineage-specific surface marker expression
same,selectivity for AURKA relative to AURKB in cells,[15],200 fold
CN(C)S(=O)(=O)c1ccc2c(c1)/C(=C/c1cc3c([nH]1)CCCC3)C(=O)N2 [SU6656],apoptosis,[5]; [19],inducing
same,polyploidization,[5]; [19],inducing
same,proliferation,[5]; [19],inhibited
C=C1[C@@H](C)[C@H]2[C@H](Cc3ccccc3)NC(=O)[C@]23OC(=O)/C=C/[C@H](O)CCC[C@@H](C)C/C=C/[C@H]3[C@@H]1O [cytochalasin B],screening positive: increased fraction of cells with DNA content beyond a cutoff (between 4N and 8N) compared to DMSO,[9],positives
O=S(=O)(c1cccc2cnccc12)N1CCCNCC1 [fasudil],number of kinases whose binding to the immobilized ligand was inhibited by more than 65%,[16],27
same,activity / phenotype in AMKL-derived cells compared with diMF,[17],did not fully recapitulate the strong phenotype; also recorded: lack of activity
same,growth of leukemia cells in vivo and in vitro,[18],restricted the growth
C/C1=C/C(=O)O[C@@H]2C[C@@H](CC[C@H](C)/C=C\CC1)O[C@@](O)([C@@H]1CSC(=O)N1)C2 [latrunculin B],apoptosis,[5]; [19],inducing
same,polyploidization,[5]; [19],inducing
same,proliferation,[5]; [19],inhibited
same,screening positive: increased fraction of cells with DNA content beyond a cutoff (between 4N and 8N) compared to DMSO,[9],positives
c1nc2nc(Nc3ccc(N4CCOCC4)cc3)nc(NC3CCCCC3)c2[nH]1 [reversine],apoptosis,[5]; [19],inducing
same,polyploidization,[5]; [19],inducing
same,proliferation,[5]; [19],inhibited
same,screening positive: increased fraction of cells with DNA content beyond a cutoff (between 4N and 8N) compared to DMSO,[9],identified
JAK3 inhibitor VI,apoptosis,[5],inducing
same,polyploidization,[5],inducing; also recorded: Induction of CMK polyploidization
same,screening positive: increased fraction of cells with DNA content beyond a cutoff (between 4N and 8N) compared to DMSO,[9],identified
